From patent publication US20100222360A1, “Treatment of Malignant Peripheral Nerve Sheath Tumors” (priority 2008, published 2010)

System: MPNST cell line, YST-1
Experiment: Proliferation of the MPNST cell line YST-1
Type: cell-based

SMILES: O=C1c2ccccc2-c2n[nH]c3cccc1c23 [SP600125]
- effect on the suppression of cell proliferation effected by Imatinib (SP600125 in combination with Imatinib, YST-1 cells): reinforces the suppression of cell proliferation
- suppression of proliferation of the MPNST cell line YST-1 (single agent, concentration-dependent manner): suppresses the proliferation
